Laboratory results: patent US5153223A, “Biurets, aminocarbonyl carbamates, and aminocarbonyl thiocarbamates useful as ACAT inhibitors” (priority 1991, dated 1992)
Read-outs that look alike come from different tables or passages of the source. Values belong to the molecule of their own block, whether it stands above or below them.

How the values were obtained:
[1] = In vivo screen APCC: plasma total cholesterol in rats on high fat, high cholesterol diet with 0.5% cholic acid; parameters: species or system male Sprague-Dawley rats; settings: rat APCC, high fat high cholesterol diet overnight; for change in vivo at 30 mg/kg / change in vivo at 50 mg/kg: read-out: % Change in Plasma TC Values (mg/dL); for change in vivo at 50 mg/kg: *Dosed at 50 mg/kg
Excerpt: In one in vivo screen designated APCC, male Sprague-Dawley rats (200 to 225 g) were randomly divided into treatment groups and dosed at 4 PM with either vehicle (CMC/Tween) or suspensions of compounds in vehicle. The norma chow diet was then replaced with a high fat, high cholesterol diet with 0.5% cholic acid. The rats consumed this diet ad libitum during the night and were sacrificed at 8 AM to obtain blood samples for cholesterol analysis using standard procedures. Statistical differences between mean cholesterol values for the same vehicle were determined using analysis of variance followed by Fisher's least significant test. Compounds were dosed at 30 mg/kg unless otherwise noted.

[2] = target: T1, acyl-CoA: cholesterol acyltransferase (ACAT) (Oryctolagus cuniculus, UniProt G1SFD9); assay: In vitro ACAT inhibition (IAI): radiolabeled cholesterol oleate formed from radiolabeled oleic acid in rabbit intestinal microsomes; type: biochemical
T1 construct: tissue preparation containing rabbit intestinal microsomes; from tissue; host or cells: rabbit intestinal microsomes
T1 sequence (G1SFD9 1-524): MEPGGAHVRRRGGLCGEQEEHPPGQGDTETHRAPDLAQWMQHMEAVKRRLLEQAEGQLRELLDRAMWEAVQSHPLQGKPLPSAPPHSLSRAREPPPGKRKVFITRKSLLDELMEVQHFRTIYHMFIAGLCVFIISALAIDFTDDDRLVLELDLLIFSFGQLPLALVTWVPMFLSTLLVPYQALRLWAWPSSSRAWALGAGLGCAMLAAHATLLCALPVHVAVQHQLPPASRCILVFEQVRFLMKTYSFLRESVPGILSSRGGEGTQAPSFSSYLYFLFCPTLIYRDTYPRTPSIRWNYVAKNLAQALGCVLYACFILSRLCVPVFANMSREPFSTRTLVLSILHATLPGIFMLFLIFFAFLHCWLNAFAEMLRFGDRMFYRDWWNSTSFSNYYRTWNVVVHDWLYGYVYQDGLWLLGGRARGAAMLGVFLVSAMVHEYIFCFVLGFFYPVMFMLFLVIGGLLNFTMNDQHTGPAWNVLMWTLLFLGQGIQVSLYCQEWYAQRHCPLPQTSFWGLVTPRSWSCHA
Description: The ability of representative compounds of the present invention to inhibit ACAT was measured using an in vitro test more fully described in F. J. Field and R. G. Salone, Biochemica et Biophysica 712:557-570 (1982). The test assesses the ability of a test compound to inhibit the acylation of cholesterol by oleic acid by measuring the amount of radiolabeled cholesterol oleate formed from radiolabeled oleic acid in a tissue preparation containing rabbit intestinal microsomes.
The data appear in Table 1 where they are expressed as IC50 values; i.e., the concentration of test compound required to inhibit the activity of the enzyme by 50%.

[3] = rabbit intestinal microsomes, ACAT, read-out: IAI IC50

Structure (SMILES): CCCCCCCCCCC(C)OC(=O)NC(=O)Nc1c(C(C)C)cccc1C(C)C (racemic) [Example 19, (±)[[[2,6-bis(1-methylethyl)phenyl]amino]carbonyl]carbamic acid, 1-methylundecyl ester]
change in vivo at 30 mg/kg ([1]; 30 mg/kg): -26%

Structure (SMILES): CCCCCCCC(C)OC(=O)NC(=O)Nc1c(C(C)C)cccc1C(C)C (racemic) [Example 20, (±)[[[2,6-bis(1-methylethyl)phenyl]amino]carbonyl]carbamic acid, 1-methyloctyl ester]
change in vivo at 30 mg/kg ([1]; 30 mg/kg): -24%

Structure (SMILES): CCCCCC(C)OC(=O)NC(=O)Nc1c(C(C)C)cccc1C(C)C (racemic) [Example 21, (±)[[[2,6-bis(1-methylethyl)phenyl]amino]carbonyl]carbamic acid, 1-methylhexyl ester]
change in vivo at 30 mg/kg ([1]; 30 mg/kg): -22%

Structure (SMILES): CCCCCCCCC(C)OC(=O)NC(=O)Nc1c(C(C)C)cccc1C(C)C (racemic) [Example 22, (±)[[[2,6-bis(1-methylethyl)phenyl]amino]carbonyl]carbamic acid, 1-methylnonyl ester]
change in vivo at 30 mg/kg ([1]; 30 mg/kg): -22%

Structure (SMILES): CCCCCCCCCCCCCCC(C)OC(=O)NC(=O)Nc1c(C(C)C)cccc1C(C)C (racemic) [Example 23, (±)[[[2,6-bis(1-methylethyl)phenyl]amino]carbonyl]carbamic acid, 1-methylpentadecyl ester]
change in vivo at 30 mg/kg ([1]; 30 mg/kg): -26%

Structure (SMILES): CCCCCCCCCCCCC(C)OC(=O)NC(=O)Nc1c(C(C)C)cccc1C(C)C (racemic) [Example 24, (±)[[[2,6-bis(1-methylethyl)phenyl]amino]carbonyl]carbamic acid, 1-methyltridecyl ester]
change in vivo at 30 mg/kg ([1]; 30 mg/kg): -33%

IC50 [2, 3]: 600 nM
Structure (SMILES): CC(C)c1cccc(C(C)C)c1NC(=O)N(C)C(=O)N(c1ccccc1)c1ccccc1 [Example 1, N'-[2,6-bis(1-methylethyl)phenyl]-2-methyl-N,N-diphenyliminodicarbonic diamide]
change in vivo at 30 mg/kg ([1]; 30 mg/kg): -9%

IC50 [2, 3]: > 1000 nM
Structure (SMILES): CC(C)c1cccc(C(C)C)c1NC(=O)NC(=O)NC(c1ccccc1)c1ccccc1 [Example 2, N-[2,6-bis(1-methylethyl)phenyl)-N'-(diphenylmethyl) iminodicarbonic amide]

IC50 [2, 3]: > 5000 nM
Structure (SMILES): CC(C)c1cccc(C(C)C)c1NC(=O)NC(=O)Nc1c(C(C)C)cccc1C(C)C [Example 3, N,N'-bis[2,6-bis(1-methylethyl)phenyl]imidodicarbonic diamide]

Structure (SMILES): CC(C)c1cccc(C(C)C)c1NC(=O)NC(=O)N(Cc1ccccc1)Cc1ccccc1 [Example 4, N'-[2,6-bis(1-methylethyl)phenyl]-N,N-bis(phenylmethyl)imidodicarbonic diamide]
change in vivo at 50 mg/kg [1]: -13%

Structure (SMILES): CC(C)c1cccc(C(C)C)c1NC(=O)NC(=O)N(c1ccccc1)c1ccccc1 [Example 5, N'-[2,6-bis(1-methylethyl)phenyl]-N,N-diphenylimidodicarbonic diamide]
change in vivo at 50 mg/kg [1]: -40%

Structure (SMILES): CCCCCCCCN(CCCCCCCC)C(=O)NC(=O)Nc1c(C(C)C)cccc1C(C)C [Example 6, N-[2,6-bis(1-methylethyl)phenyl]-N,N-dioctylimidodicarbonic diamide]
change in vivo at 50 mg/kg [1]: -5%

Structure (SMILES): CCCCN(CCCC)C(=O)NC(=O)Nc1c(C(C)C)cccc1C(C)C [Example 7, N'-[2,6-bis(1-methylethyl)phenyl]-N,N-dibutylimidodicarbonic diamide]
change in vivo at 50 mg/kg [1]: -23%

IC50 [2, 3]: 890 nM
Structure (SMILES): CC(C)c1cccc(C(C)C)c1NC(=O)NC(=O)N1c2ccccc2CCc2ccccc21 [Example 8, N-[[[2,6-bis(1-methylethyl)phenyl]amino]carbonyl]-10,11-dihydro-5H-dibenz[b,f]azepin-5-carboxamide]
change in vivo at 50 mg/kg [1]: -18%

IC50 [2, 3]: > 5000 nM
Structure (SMILES): CC(C)c1cccc(C(C)C)c1NC(=O)NC(=O)N1CCCC1 [Example 9, N-[[[2,6-bis(1-methylethyl)phenyl]amino]carbonyl]-1-pyrrolidinecarboxamide]

IC50 [2, 3]: > 5000 nM
Structure (SMILES): CCN(CC)C(=O)NC(=O)Nc1c(C(C)C)cccc1C(C)C [Example 10, N'-[2,6-bis(1-methylethyl)phenyl]-N,N-diethylimidodicarbonic diamide]

Structure (SMILES): CC(C)c1cccc(C(C)C)c1NC(=O)NC(=O)N(Cc1ccccc1)C(C)C [Example 11, N'-[2,6-bis(1-methylethyl)phenyl]-N-(1-methylethyl)-N-(phenylmethyl)imidodicarbonic diamide]
change in vivo at 50 mg/kg [1]: -27%

Structure (SMILES): CC(C)c1cccc(C(C)C)c1NC(=O)NC(=O)N1c2ccccc2Sc2ccccc21 [Example 12, N-[[[2,6-bis(1-methylethyl)phenyl]amino]carbonyl]-10H-phenothiazine-10-carboxamide]
change in vivo at 50 mg/kg [1]: -19%

IC50 [2, 3]: 3500 nM
Structure (SMILES): CC(C)c1cccc(C(C)C)c1NC(=O)NC(=O)N1CCC(c2ccccc2)CC1 [Example 13, N-[[[2,6-bis(1-methylethyl)phenyl]amino]carbonyl]-1-[(4-phenyl)piperidine]carboxamide]

Structure (SMILES): CCCCCCCCCCCCCCN(C)C(=O)NC(=O)Nc1c(C(C)C)cccc1C(C)C [Example 14, N'-[2,6-bis(1-methylethyl)phenyl]-N-methyl-N-tetradecylimidodicarbonic diamide]
change in vivo at 30 mg/kg ([1]; 30 mg/kg): -8%

Structure (SMILES): CC(C)c1cccc(C(C)C)c1NC(=O)NC(=O)Oc1c(C(C)C)cccc1C(C)C [Example 15, [[[2,6-bis(1-methylethyl)phenyl]amino]carbonyl] carbamic acid,2,6-bis(1-methylethyl)phenyl ester]
change in vivo at 30 mg/kg ([1]; 30 mg/kg): -9%

Structure (SMILES): CCCCCCCCCCCCC(C)(C)OC(=O)NC(=O)Nc1c(C(C)C)cccc1C(C)C [Example 17, [[[2,6-bis(1-methylethyl)phenyl]amino]carbonyl]carbamic acid, 1,1-dimethyltridecyl ester]
change in vivo at 30 mg/kg ([1]; 30 mg/kg): -14%

Structure (SMILES): CCCCCCCCCCCCOC(=O)NC(=O)Nc1c(C(C)C)cccc1C(C)C [Example 18, [[[2,6-bis(1-methylethyl)phenyl]amino]carbonyl]carbamic acid, dodecyl ester]
change in vivo at 30 mg/kg ([1]; 30 mg/kg): -38%

Structure (SMILES): CC(C)c1cccc(C(C)C)c1OC(=O)NC(=O)NC(c1ccccc1)c1ccccc1 [Example 25, [[(diphenylmethyl)amino]carbonyl]carbamic acid, 2,6-bis(1-methylethyl)phenyl ester]
% Change in Plasma TC Values (mg/dL) ([1]; 30 mg/kg): No change
IC50 [2]: > 1000 nM
